{"source": "patent US10239957B2", "about": "“Peptide containing conjugates for dual molecular delivery of oligonucleotides” (Merck Sharp & Dohme Corp., priority 2013, dated 2019)", "key": {"CTNNB1 [1]": {"tested_on": "CTNNB1", "assay": "In vivo evaluation in mice: liver mRNA knockdown measurement", "settings": "mice", "protocol": "Female CD-1 mice (Charles River) were injected in accordance with either a sequential dosing paradigm or a co-dosing paradigm. In the sequential dosing paradigm, the targeted siRNA (SCE) is dosed at t=0 and the targeted peptide is separately dosed up to 2 hr before the SCE (−2 hr) or up to 24 hr after the SCE (+24 hr). In the co-dosing paradigm, the SCE and peptides are co-formulated and dosed together in the same formulation as a single injection at t=0. The mice were dosed either by intravenous (i.v.) or subcutaneous (s.c.) injection of SCE and peptide. For the i.v. doses, the compounds were injected into the tail vein of the mice. For the s.c. doses, the compounds were injected in the subcutaneous space on the back of the mouse between the shoulder blades. At the indicated harvest times (measured from t=0 when the siRNA was dosed, regardless of when the peptide was dosed), the animals were sacrificed and 3 mm liver punches were collected, preserved in RNAlater (Ambion), and stored at 4° C. Separate 5 mm liver punches were collected, placed in 96-well plates, frozen on dry ice, and stored at −80° C. until use.\nThe 3 mm liver punches were removed from RNAlater and homogenized in Trizol (Invitrogen) using a bead mill tissue lyser (Qiagen); disruption was performed for two 5-minute cycles at 30 Hz. RNA extraction was performed using 1-bromo-2-chloropropane (Acros Organics) and total RNA was isolated from the aqueous phase using the MagMax RNA isolation method (Ambion). […] TaqMan qPCR analysis was performed with an ABI 7900 Real-Time PCR System using TaqMan Fast Advanced Master Mix (Applied Biosystems). All TaqMan probes and primers for CTNNB1 and PPIB (housekeeping gene) were purchased from Applied Biosystems as pre-validated gene expression assays. Results are calculated by the comparative Ct method, where the difference between the CTNNB1 Ct value and the PPIB Ct value (ΔCt) is calculated and then further normalized relative to the PBS control by taking a second difference (ΔΔCt), as described previously (1)."}, "CTNNB1 [2]": {"tested_on": "CTNNB1", "assay": "In vitro DMD assay: mRNA silencing enhancement by peptide conjugates after siRNA-IV treatment", "assay_type": "cell-based", "settings": "primary mouse hepatocytes, siRNA-IV 125 nM baseline", "method_in_brief": "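RT-qPCR read-out, PPIB-normalized (dddCt), gave silencing enhancement versus 125 nM siRNA-IV alone and untreated cells. Beforehand, cultured primary mouse hepatocytes received siRNA-IV for 1 h, then graded peptide-conjugate doses for ~16 h, followed by washout and a further 24 h incubation.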"}, "[3]": {"settings": "TGN-L-siRNA-III 0.5 mg/kg IV, peptide 5 mg/kg IV 15 min after siRNA"}, "[4]": {"settings": "TGN-L-siRNA-III 0.25 mg/kg IV, peptide 10 mg/kg IV 15 min after siRNA"}}, "note": "Where no end group is shown, it is not given here. [ ]: non-standard residue; d: D form. TGN = not defined here"}
{"substance": "siRNA-IV: CTNNB1 siRNA; passenger SEQ ID NO 1807 (clickA, 5Chol), guide SEQ ID NO 1806 (sense CUGUUGGAUUGAUUCGAAAUU; guide TUUCGAAUCAAUCCAACAGUU; click A, 5' cholesterol; vinylphosphonate MOE T; (1)..(1) aminohexyl phosphate inverted abasic cap; (1)..(2) 2′-O-methyl; (3)..(3) 2′-deoxy-2′-fluoro; (4)..(5) 2′-O-methyl; (6)..(8) 2′-deoxy-2′-fluoro; (9)..(10) 2′-O-methyl; (11)..(12) 2′-deoxy-2′-fluoro; (13)..(15) 2′-O-methyl; (16)..(16) 2′-deoxy-2′-fluoro; (17)..(17) 2′ propagyl; (18)..(19) 2′-deoxy-2′-fluoro; (20)..(21) 2′-O-methyl; (20)..(21) phosphorothioate internucleotide linkage; (21)..; (1)..(1) terminal vinyl phosphate; (1)..(1) 2′-methoxyethoxy; (2)..(21) ribonucleotide unmodified or modified as described for this sequence; …)", "values": [{"measurement": "In vivo mRNA knockdown", "setting": "CTNNB1 [1]; targeted siRNA alone 0.5 mg/kg IV, peptide dose 0", "result": 25, "unit": "%"}, {"measurement": "In vivo mRNA knockdown", "setting": "CTNNB1 [1]; targeted siRNA alone 2 mg/kg IV, peptide dose 0", "result": 25, "unit": "%"}, {"measurement": "In vivo mRNA knockdown", "setting": "CTNNB1 [1]; targeted siRNA alone 5 mg/kg IV, peptide dose 0", "result": 35, "unit": "%"}]}
{"substance": "TGN-S-S-SEQ ID NO: 1248 (L) (C(TGN)FLEELWELLEHLL; reading uncertain; also: TGN disulfide conjugate at Cys1; listed as Homo sapiens)", "values": [{"measurement": "In vivo mRNA knockdown", "setting": "CTNNB1 [1]; [3]", "result": 24, "unit": "%"}]}
{"substance": "TGN-S-S-SEQ ID NO: 1489 (D) ([dC][dL][dE][dL][dW][dL][dE][dH][dL][dF][dL][dE][dL][dE]; not fully specified (residue 1); also: TGN attached via disulfide; listed as Homo sapiens)", "values": [{"measurement": "In vivo mRNA knockdown", "setting": "CTNNB1 [1]; TGN-L-siRNA-III 0.5 mg/kg IV, peptide 2 mg/kg IV 15 min after siRNA", "result": 37, "unit": "%"}, {"measurement": "In vivo mRNA knockdown", "setting": "CTNNB1 [1]; TGN-L-siRNA-III 0.5 mg/kg IV, peptide 10 mg/kg IV 15 min after siRNA", "result": 26, "unit": "%"}, {"measurement": "In vivo mRNA knockdown", "setting": "CTNNB1 [1]; TGN-L-siRNA-III 0.5 mg/kg IV, peptide 25 mg/kg IV 15 min after siRNA", "result": 34, "unit": "%"}]}
{"substance": "TGN-S-S-SEQ ID NO: 1716 (L) (C(TGN)GLFEELAGLLWHGLKNLIDWWNG; reading uncertain; also: TGN disulfide conjugate at Cys1; listed as Homo sapiens)", "values": [{"measurement": "In vivo mRNA knockdown", "setting": "CTNNB1 [1]; [3]", "result": 39, "unit": "%"}]}
{"substance": "TGN-S-S-SEQ ID NO: 1729 (L) (C(TGN)GPSQPTYPGDDAPVRDLIRFYRDLRRYLNVVTRHRY; reading uncertain; also: TGN linked to Cys via disulfide, TGN not defined; listed as Homo sapiens)", "values": [{"measurement": "In vivo mRNA knockdown", "setting": "CTNNB1 [1]; [4]", "result": 10, "unit": "%"}]}
{"substance": "TGN-S-S-SEQ ID NO: 1728(D): TGN-S-S-peptide; peptide CGLFAVIEEVASVIGGL ([dC]G[dL][dF][dA][dV][dI][dE][dE][dV][dA][dS][dV][dI]GG[dL]; not fully specified (residue 1); also: disulfide to TGN peptide via Cys1; listed as Homo sapiens)", "values": [{"measurement": "In vivo mRNA knockdown", "setting": "CTNNB1 [1]; [4]", "result": 23, "unit": "%"}]}
{"substance": "TGN-S-S-SEQ ID NO: 1763 (D) ([dC]G[dL][dF]G[dE][dI][dE][dE][dL][dI][dE][dE]G[dL][dE][dN][dL][dW][dD][dW]G[dN]G; not fully specified (residue 1); also: disulfide to TGN peptide via Cys1; listed as Homo sapiens)", "values": [{"measurement": "In vitro dddCt (vs. baseline SCE dose)", "setting": "CTNNB1 [2]; Targeted peptide dose 8 nM", "result": "−0.13"}, {"measurement": "In vitro dddCt (vs. baseline SCE dose)", "setting": "CTNNB1 [2]; Targeted peptide dose 40 nM", "result": "−0.67"}, {"measurement": "In vitro dddCt (vs. baseline SCE dose)", "setting": "CTNNB1 [2]; Targeted peptide dose 200 nM", "result": "−1.26"}, {"measurement": "In vitro dddCt (vs. baseline SCE dose)", "setting": "CTNNB1 [2]; Targeted peptide dose 1000 nM", "result": "−1.44"}, {"measurement": "In vitro dddCt (vs. baseline SCE dose)", "setting": "CTNNB1 [2]; Targeted peptide dose 5000 nM", "result": "−1.29"}]}
{"substance": "TGN-S-S-SEQ ID NO: 1751 (D) ([dC]G[dL][dF]G[dE][dI][dE][dE][dL][dI][dE][dE]G[dW][dE][dN][dL][dI][dD][dW]G[dN]G; not fully specified (residue 1); also: disulfide to TGN peptide via Cys1; listed as Homo sapiens)", "values": [{"measurement": "In vitro dddCt (vs. baseline SCE dose)", "setting": "CTNNB1 [2]; Targeted peptide dose 8 nM", "result": "−0.1"}, {"measurement": "In vitro dddCt (vs. baseline SCE dose)", "setting": "CTNNB1 [2]; Targeted peptide dose 40 nM", "result": "−0.12"}, {"measurement": "In vitro dddCt (vs. baseline SCE dose)", "setting": "CTNNB1 [2]; Targeted peptide dose 200 nM", "result": 0.09}, {"measurement": "In vitro dddCt (vs. baseline SCE dose)", "setting": "CTNNB1 [2]; Targeted peptide dose 1000 nM", "result": "−0.05"}, {"measurement": "In vitro dddCt (vs. baseline SCE dose)", "setting": "CTNNB1 [2]; Targeted peptide dose 5000 nM", "result": 0.01}]}
{"substance": "TGN-S-S-Seq-ID-115 (D) ([dC][dL][dH][dL][dL][dH][dH][dL][dL][dH][dH][dL][dH][dH][dL][dL][dH][dH][dL][dL][dH][dL][dL][dH][dH][dL][dL][dH][dH][dL]GGG[dR][dK][dK][dR][dR][dQ][dR][dR][dR][dP][dP][dQ]; not fully specified (residue 1); also: TGN conjugated via disulfide at Cys1; listed as Homo sapiens)", "values": [{"measurement": "In vitro dddCt (vs. baseline SCE dose)", "setting": "CTNNB1 [2]; Targeted peptide dose 5000 nM", "result": "−0.17"}]}
{"substance": "TGN-S-S-SEQ ID NO: 1654 (D)) ([dC]G[dL][dL][dE][dE][dI][dE][dE][dL][dL][dE][dE]G[dL][dE][dN][dL][dI][dD][dW]G[dN][dS]; not fully specified (residue 1); also: TGN attached via disulfide; listed as Homo sapiens)", "values": [{"measurement": "In vitro dddCt (vs. baseline SCE dose)", "setting": "CTNNB1 [2]; Targeted peptide dose 125 nM", "result": "−1.05"}]}
{"substance": "TGN-S-S-SEQ ID NO: 1798 (D) ([dC]G[dL][dF]G[dE][dF][dE][dE][dL][dI][dE][dE]G[dL][dE][dN][dL][dI][dD][dW]G[dN]G; not fully specified (residue 1); also: TGN conjugated via disulfide at Cys1; listed as Homo sapiens)", "values": [{"measurement": "In vitro dddCt (vs. baseline SCE dose)", "setting": "CTNNB1 [2]; Targeted peptide dose 8 nM", "result": "−0.09"}, {"measurement": "In vitro dddCt (vs. baseline SCE dose)", "setting": "CTNNB1 [2]; Targeted peptide dose 40 nM", "result": "−0.69"}, {"measurement": "In vitro dddCt (vs. baseline SCE dose)", "setting": "CTNNB1 [2]; Targeted peptide dose 200 nM", "result": "−0.13"}, {"measurement": "In vitro dddCt (vs. baseline SCE dose)", "setting": "CTNNB1 [2]; Targeted peptide dose 1000 nM", "result": "−0.26"}, {"measurement": "In vitro dddCt (vs. baseline SCE dose)", "setting": "CTNNB1 [2]; Targeted peptide dose 5000 nM", "result": "−0.18"}]}
{"substance": "TGN-S-S-SEQ ID NO: 1759 (D) ([dC]G[dL][dF]G[dE][dI][dE][dE][dL][dI][dE][dE]G[dL][dE][dS][dL][dI][dD][dW]G[dN]G; not fully specified (residue 1); also: disulfide to TGN peptide via Cys1; listed as Homo sapiens)", "values": [{"measurement": "In vitro dddCt (vs. baseline SCE dose)", "setting": "CTNNB1 [2]; Targeted peptide dose 8 nM", "result": "−0.15"}, {"measurement": "In vitro dddCt (vs. baseline SCE dose)", "setting": "CTNNB1 [2]; Targeted peptide dose 40 nM", "result": "−0.87"}, {"measurement": "In vitro dddCt (vs. baseline SCE dose)", "setting": "CTNNB1 [2]; Targeted peptide dose 200 nM", "result": "−1.65"}, {"measurement": "In vitro dddCt (vs. baseline SCE dose)", "setting": "CTNNB1 [2]; Targeted peptide dose 1000 nM", "result": "−1.66"}]}
{"substance": "TGN-S-SEQ ID NO: 1517 (L) (CGLFGEIEELIEEGLECITLIDWWNG; cysteine pairing not given here; also: TGN-S conjugate; listed as Homo sapiens)", "values": [{"measurement": "In vitro dddCt (vs. baseline SCE dose)", "setting": "CTNNB1 [2]; Targeted peptide dose 25 nM", "result": 0.54}, {"measurement": "In vitro dddCt (vs. baseline SCE dose)", "setting": "CTNNB1 [2]; Targeted peptide dose 125 nM", "result": 0.49}, {"measurement": "In vitro dddCt (vs. baseline SCE dose)", "setting": "CTNNB1 [2]; Targeted peptide dose 625 nM", "result": 0.48}, {"measurement": "In vitro dddCt (vs. baseline SCE dose)", "setting": "CTNNB1 [2]; Targeted peptide dose 3125 nM", "result": 0.33}]}
{"substance": "TGN-S-S-SEQ ID NO: 1775(D) ([dC]G[dL][dF][dE][dA][dL][dL][dE][dL][dL][dE][dS][dL][dW][dE][dL][dL][dL][dE][dA]; not fully specified (residue 1); also: TGN conjugated via disulfide at Cys1; listed as Homo sapiens)", "values": [{"measurement": "In vitro dddCt (vs. baseline SCE dose)", "setting": "CTNNB1 [2]; Targeted peptide dose 8 nM", "result": "−0.1"}, {"measurement": "In vitro dddCt (vs. baseline SCE dose)", "setting": "CTNNB1 [2]; Targeted peptide dose 40 nM", "result": "−0.14"}, {"measurement": "In vitro dddCt (vs. baseline SCE dose)", "setting": "CTNNB1 [2]; Targeted peptide dose 200 nM", "result": "−0.14"}, {"measurement": "In vitro dddCt (vs. baseline SCE dose)", "setting": "CTNNB1 [2]; Targeted peptide dose 1000 nM", "result": "−0.11"}, {"measurement": "In vitro dddCt (vs. baseline SCE dose)", "setting": "CTNNB1 [2]; Targeted peptide dose 5000 nM", "result": "−0.37"}]}
